Reference: patent US20250228954A1, “Designing Antisense Oligonucleotide Delivery Peptides by Interpretable Machine Learning” (Sarepta Therapeutics, Inc., priority 2020, published 2025)

Assays:
[1] = system: HeLa 654 cells; assay: HeLa-654 eGFP assay (corrective splicing / exon skipping by PMO IVS2-654); type: cell-based, human
Procedure: With the 36 constructs synthesized, the ability to modulate PMO activity using the modified HeLa cell assay was tested. The HeLa-654 cells were stably transfected to express a nonfluorescent eGFP protein. The eGFP gene is interrupted by a mutant intron from the human β-globin gene (IVS2-654). The insertion alters pre-mRNA splicing to cause retention of a fragment in the mature mRNA that results in a nonfluorescent protein. PMO IVS2-654 base-pairs with the B-globin insertion, modifies mRNA splicing, and thereby leads to expression of fluorescent eGFP.
For treatment, the crude reaction mixture was diluted to 5 μM in media. The concentration of the modular construct was calculated based on the original concentration of the module 1-2 conjugate mixed in the reaction. Using media containing 10% fetal bovine serum (FBS), the cells were treated with each construct for 22 hours, after which the cellular fluorescence was measured by flow cytometry.
From the lists of hundreds of predicted peptide sequences, twenty candidates were selected that varied in length, charge, and predicted activity to synthesize and test. Just as with the PMO-peptide library, the PMO-Mach constructs were first tested for PMO delivery in the HeLa 654 assay at 5 μM in complete media for 22 hours and analyzed by flow cytometry (FIG. 14). Experiments were conducted using three technical triplicates and two or three biological replicates.
HeLa 654 cells were maintained in MEM supplemented with 10% (v/v) fetal bovine serum (FBS) and 1% (v/v) penicillin-streptomycin at 37° C. and 5% CO2. Eighteen hours prior to treatment, the cells were plated at a density of 5,000 cells per well in a 96-well plate in MEM supplemented with 10% FBS and 1% penicillin-streptomycin. The day of the experiment, the 384 well plate containing the crude reaction mixtures in DMSO was diluted to 100 μM by the addition of 16.8 μL of PBS to the 3.2 μL reaction mixture. Then, each construct was diluted to 5 μM in MEM supplemented with 10% FBS and 1% penicillin-streptomycin. Cells were incubated with each conjugate at a concentration of 5 μM for 22 hours at 37° C. and 5% CO2. Next, the treatment media was aspirated the cells were incubated with Trypsin-EDTA 0.25% for 15 min at 37° C. and 5% CO2, washed 1× with PBS, and resuspended in PBS with 2% FBS and 2 μg/mL propidium iodide. Flow cytometry analysis was carried out on a BD LSRII flow cytometer. Gates were applied to the data to ensure that cells that were highly positive for propidium iodide or had forward/side scatter readings that were sufficiently different from the main cell population were excluded. Each sample was capped at 5,000 gated events.
Analysis was conducted using Graphpad Prism 7. For each sample, the mean fluorescence intensity and the number of gated cells was measured (FIGS. 8 and 9) and the intensity multiplied by the cell number was calculated (FIG. 7).

[2] = Chromogenic LAL endotoxin assay; settings: lot used for animal studies, acetate salt, 0.5 mg in 1 mL PBS
Procedure: The amount of endotoxin in PMO-P7 was measured. A chromogenic LAL (Limulus Amebocyte Lysate) assay for the detection and quantification of bacterial endotoxins was used. LAL is an extract of blood cells (amoebocytes) from the Atlantic horseshoe crab. This assay is based on the reaction of LAL with bacterial endotoxin lipopolysaccharide (LPS), which is a membrane component of gram-negative bacteria. In this method the LAL reagent is mixed with a chromogenic reagent (a peptide connected to p-nitroaniline, a yellow colorant) to produce a synthetic chromogenic substrate. The sample was added to this chromogenic substrate prior incubation. The presence of endotoxins in the sample produces a series of enzymatic reactions in the LAL reagent resulting in the breaking of the peptide bonds releasing p-nitroaniline molecules and therefore producing a yellow color. The concentration of endotoxin is quantitated by measuring the absorbance at 405-410 nm. Using the lot of PMO-P7 for animal studies, PMO-P7 solution was prepared using 0.5 mg of PMO-P^7 as acetate salt dissolved in 1 mL of PBS (1X). […] The reader mixed the sample with the LAL (Limulus Amebocyte Lysate) reagent. […] After mixing, the optical density of the wells was measured and analyzed against an internal archived standard curve. The reading was 0.0471 EU/mg (EU: endotoxin units). […]

[3] = system: EGFP-654 mice; assay: EGFP protein level in tissues of EGFP-654 mice after single i.v. injection; type: in vivo, mouse; set-up: unit not given here; settings: 7 days
From the text: The mice used in the study contain a similar transgene as the HeLa654 cells from Example 4. This mouse model ubiquitously expresses EGFP-654 transgene throughout the body under chicken β-actin promoter. A mutated nucleotide 654 at intron 2 of human β-globin gene is contained in the EGFP-654 sequence which interrupts EGFP-654 coding sequence and prevents proper translation of EGFP protein. […] In this study, 6- to 8-week-old male EGFP-654 mice bred at Charles River Laboratory were used. These mice were group housed with ad libitum access to food and water.
[…] Seven days after the injection, the mice were euthanized for serum and tissue sample collection. Quadriceps, diaphragm, heart were rapidly dissected, snap-frozen in liquid nitrogen and stored at −80° C. until analysis.
20-25 mg of mouse tissue was homogenized in RIPA buffer (Thermo Fisher, Cat #89900) with protease inhibitor cocktail (Roche, 04693124001) using a Fast Prep 24-5G instrument (MP Biomedical). Homogenates were centrifuged at 12,000 g for 10 min at 4° C. The resultant supernatant lysates were quantified by Pierce BCA Protein Assay Kit (Thermo Fisher, Cat #23225) and saved for EGFP expression measurement. Specifically, 80 μg of lysates were aliquoted in each well in a black-wall clear-bottom 96-well microplate (Corning). EGFP fluorescent intensity of each sample was measured in duplicates using a SpectraMAx i3x microplate reader (Molecular devices) by default setting. The average EGFP fluorescent intensity of each sample was then plotted against a standard curve constructed by recombinant EGFP protein (Origen, Cat #TP790050) to quantify EGFP protein level per μg protein lysate (See FIGS. 24D-F).

[4] = Serum kidney injury markers in EGFP-654 mice; type: in vivo, mouse; settings: after seven days
Procedure: After 3-days of acclimation, mice were randomized into groups to receive a single i.v. tail vein injection of either saline or PMO-P7 at the indicated doses; 5, 10 and 30 mg/kg. Seven days after the injection, the mice were euthanized for serum and tissue sample collection. Quadriceps, diaphragm, heart were rapidly dissected, snap-frozen in liquid nitrogen and stored at −80° C. until analysis.
Serum from all groups were collected 7-days post-injection and tested for kidney injury markers using a Vet Axcel Clinical Chemistry System (Alfa Wassermann Diagnostic Technologies, LLC). Specifically, serum BUN, creatinine, and cystatin C levels were measured using ACE® Creatinine Reagent (Alfa Wassermann, Cat #SA1012), ACER Blood Urea Nitrogen Reagent (Alfa Wassermann, Cat #SA2024) and Diazyme Cystatin C immunoassay (Diazyme Laboratories, Cat #DX133C—K), […], per manufacturer's recommendation (See, FIGS. 24A-C).

## Cc1cn([C@H]2CN(P(=O)(OC[C@@H]3CN(P(=O)(OC[C@@H]4CN(P(=O)(OC[C@@H]5CN(P(=O)(OC[C@@H]6CN(P(=O)(OC[C@@H]7CN(P(=O)(OC[C@@H]8CN(P(=O)(OC[C@@H]9CN(P(=O)(OC[C@@H]%10CN(C(=O)CCCCC(=O)N%11Cc%12ccccc%12-c%12nnn(CCCCC(=O)N[C@@H](CCCCN)C(=O)N[C@@H](CCCCN)C(=O)N[C@@H](CCCCN)C(=O)N[C@@H](CCCCN)C(=O)N[C@@H](CCCCN)C(=O)N[C@@H](CCC(N)=O)C(=O)NCCC(=O)N[C@@H](CCCCN)C(=O)N[C@@H](CCCCN)C(=O)N[C@@H](CCCCN)C(=O)N[C@@H](Cc%13c[nH]cn%13)C(=O)N[C@@H](CCCNC(=N)N)C(=O)N[C@@H](Cc%13c[nH]c%14ccccc%13%14)C(=O)N%13CCC[C@H]%13C(=O)N[C@@H](CCCCN)C(=O)NCCCCCC(=O)NCCCCCC(=O)N[C@@H](CS)C(N)=O)c%12-c%12ccccc%12%11)C[C@H](n%11cnc%12c(=O)[nH]c(N)nc%12%11)O%10)N(C)C)C[C@H](n%10cnc%11c(N)ncnc%11%10)O9)N(C)C)C[C@H](n9ccc(N)nc9=O)O8)N(C)C)C[C@H](n8ccc(N)nc8=O)O7)N(C)C)C[C@H](n7ccc(N)nc7=O)O6)N(C)C)C[C@H](n6cnc7c(N)ncnc76)O5)N(C)C)C[C@H](n5cnc6c(N)ncnc65)O4)N(C)C)C[C@H](n4cc(C)c(=O)[nH]c4=O)O3)N(C)C)C[C@@H](COP(=O)(N(C)C)N3C[C@@H](COP(=O)(N(C)C)N4C[C@@H](COP(=O)(N(C)C)N5C[C@@H](COP(=O)(N(C)C)N6C[C@@H](COP(=O)(N(C)C)N7C[C@@H](COP(=O)(N(C)C)N8C[C@@H](COP(=O)(N(C)C)N9C[C@@H](COP(=O)(N(C)C)N%10C[C@@H](COP(=O)(N(C)C)N%11C[C@@H](COP(=O)(N(C)C)N%12CCN(C(=O)OCCOCCOCCO)CC%12)O[C@@H](n%12cnc%13c(=O)[nH]c(N)nc%13%12)C%11)O[C@@H](n%11ccc(N)nc%11=O)C%10)O[C@@H](n%10cc(C)c(=O)[nH]c%10=O)C9)O[C@@H](n9cnc%10c(N)ncnc%109)C8)O[C@@H](n8cc(C)c(=O)[nH]c8=O)C7)O[C@@H](n7cc(C)c(=O)[nH]c7=O)C6)O[C@@H](n6cnc7c(N)ncnc76)C5)O[C@@H](n5ccc(N)nc5=O)C4)O[C@@H](n4ccc(N)nc4=O)C3)O2)c(=O)[nH]c1=O (some centres unmarked) [P7]
[1]; 5 μM
  fold increase in activity with respect to unconjugated PMO (eGFP assay): 14 fold
[1]; 5 μM, 22 h
  PMO delivery / activity, result in words: superior activity
[1]; dose-response between 0.1 and 100 μM
  fold increase at maximal effective concentration with respect to unconjugated PMO: 45 fold
[1]; eGFP fluorescence of PMO-peptide conjugate relative to unconjugated PMO, 5 μM, 22 h
  FOLD OVER PMO: 17.7
[2]
  endotoxin: 0.0471 EU/mg
[3]; 30 mg/kg
  GFP protein in the Diaphragm: 1100
  GFP protein in the Heart: 2000
  GFP protein in the Quadriceps: 1300
[3]; 60 mg/kg
  GFP protein in the Diaphragm: 2500
  GFP protein in the Heart: 2200
  GFP protein in the Quadriceps: 4000
[4]
  BUN (blood urea nitrogen) levels: no significant changes
  creatinine levels: no significant changes
  cystatin C levels: no significant changes
